Test results: patent US7049282B2, “Inhibition of complement action” (Duke University, priority 1999, dated 2006)

System: complement binding to the sheep erythrocyte targets
Test: standard assay of inhibition of complement binding (Miletic et al): sheep erythrocytes sensitized with rabbit antibody, C8D human serum
Assay type: biochemical
Source text: In addition to the peptides and derivatives described above, the invention also relates to mimetics of the peptides that have the above-described complement blocking function. The mimetics can be identified using protocols available in the art, including those described by Miletic et al, J. Immunology 156:749 (1996)) which are based on the binding of complement to antibody-sensitized red blood cells and on the binding of complement to solid phase immune complexes. As described below, these protocols can be used to identify complement-blocking peptides and derivatives as well.
Peptides, derivatives and mimetics that block complement function can be identified by incubating a target for an active complement protein, for example, antibody-coated particles (e.g., antibody-sensitized red blood cells) or immune complexes (e.g., bovine serum albumin-anti-bovine serum complexes) bound to a solid support, with the a complement protein or a complement activating system (e.g., containing C3 or C4 or mixtures of complement proteins such as found in serum (e.g., C8 or C9 deficient serum)), in the presence and in the absence of the test agent (peptide, derivative or mimetic). […] The amount of binding can be determined using any of a variety of approaches, including using radiolabeled anti-complement protein IgG. […]

## WESNGQPENN
IgG fragments and peptides isolated from digests
  activity in inhibiting complement binding: highly active
Synthesized peptides
  activity in complement inhibition: highly active
